Experimental data taken from US20180022750A1, “6-HYDROXYBENZOFURANYL- AND 6-ALKOXYBENZOFURANYL-SUBSTITUTED IMIDAZOPYRIDAZINES” (BAYER PHARMA AKTIENGESELLSCHAFT, priority 2014, published 2018).

Tests used:
human full-length MKNK1 [1] = target: T1, human full-length MKNK1 (Homo sapiens, UniProt Q9BUB5); experiment: MKNK1 kinase assay (TR-FRET, 10 μM ATP); type: biochemical; conditions: ATP 10 μM, 15 min preincubation, GST-MKNK1 (T344D)
T1 construct: GST (Glutathione-S-Transferase) (N); purchased Carna Biosciences 02-145; host or cells: insect cells (baculovirus expression system)
Description: MKNK1-inhibitory activity of compounds of the present invention was quantified employing the MKNK1 TR-FRET assay as described in the following paragraphs.
(§1) A recombinant fusion protein of Glutathione-S-Transferase (GST, N-terminally) and human full-length MKNK1 (amino acids 1-424 and T344D of accession number BAA 19885.1), expressed in insect cells using baculovirus expression system and purified via glutathione sepharose affinity chromatography, was purchased from Carna Biosciences (product no 02-145) and used as enzyme. As substrate for the kinase reaction the biotinylated peptide biotin-Ahx-IKKRKLTRRKSLKG (C-terminus in amide form) was used which can be purchased e.g. form the company Biosyntan (Berlin-Buch, Germany).
(§2) For the assay 50 nL of a 100fold concentrated solution of the test compound in DMSO was pipetted into a black low volume 384well microtiter plate (Greiner Bio-One, Frickenhausen, Germany), 2 μL of a solution of MKNK1 in aqueous assay buffer [50 mM HEPES pH 7.5, 5 mM magnesium chloride, 1.0 mM dithiothreitol, 0.005% (v/v) Nonidet-P40 (Sigma)] was added and the mixture was incubated for 15 min at 22° C. to allow pre-binding of the test compounds to the enzyme before the start of the kinase reaction. Then the kinase reaction was started by the addition of 3 μL of a solution of adenosine-tri-phosphate (ATP, 16.7 μM=>final conc. in the 5 μL assay volume is 10 μM) and substrate (0.1 μM=>final conc. in the 5 μL assay volume is 0.06 μM) in assay buffer and the resulting mixture was incubated for a reaction time of 45 min at 22° C. The concentration of MKNK1 was adjusted depending of the activity of the enzyme lot and was chosen appropriate to have the assay in the linear range, typical concentrations were in the range of 0.05 μg/ml. The reaction was stopped by the addition of 5 μL of a solution of TR-FRET detection reagents (5 nM streptavidine-XL665 [Cisbio Bioassays, Codolet, France] and 1 nM anti-ribosomal protein S6 (pSer236)-antibody from Invitrogen [#44921G] and 1 nM LANCE EU-W1024 labeled ProteinG [Perkin-Elmer, product no. AD0071]) in an aqueous EDTA-solution (100 mM EDTA, 0.1% (w/v) bovine serum albumin in 50 mM HEPES pH 7.5).
(§3) The resulting mixture was incubated for 1 h at 22° C. to allow the formation of complex between the phosphorylated biotinylated peptide and the detection reagents. Subsequently the amount of phosphorylated substrate was evaluated by measurement of the resonance energy transfer from the Eu-chelate to the streptavidine-XL. Therefore, the fluorescence emissions at 620 nm and 665 nm after excitation at 350 nm were measured in a TR-FRET reader, e.g. a Rubystar (BMG Labtechnologies, Offenburg, Germany) or a Viewlux (Perkin-Elmer). The ratio of the emissions at 665 nm and at […] was taken as the measure for the amount of phosphorylated substrate. The data were normalised (enzyme reaction without inhibitor=0% inhibition, all other assay components but no enzyme=100% inhibition).

human full-length MKNK1 [2] = target: T2, human full-length MKNK1 (Homo sapiens, UniProt Q9BUB5, T385D); experiment: MKNK1 kinase high ATP assay (TR-FRET, 2 mM ATP); type: biochemical; conditions: ATP 2 mM, 15 min preincubation, GST-MKNK1 (T344D)
T2 construct: GST (Glutathione-S-Transferase) (N); purchased Carna Biosciences 02-145; host or cells: insect cells (baculovirus expression system)
Procedure: MKNK1-inhibitory activity at high ATP of compounds of the present invention after their preincubation with MKNK1 was quantified employing the TR-FRET-based MKNK1 high ATP assay as described in the following paragraphs.
as §1, with “was used,” for “was used”, “e.g. from” for “e.g. form”
as §2, with “3.3 mM=>final” for “16.7 μM=>final”, “2 mM)” for “10 μM)”, “30” for “45”, “0.003 μg/mL.” for “0.05 μg/ml.”
as §3

T1 sequence (Q9BUB5 1-424 isoform Q9BUB5-2 T344D): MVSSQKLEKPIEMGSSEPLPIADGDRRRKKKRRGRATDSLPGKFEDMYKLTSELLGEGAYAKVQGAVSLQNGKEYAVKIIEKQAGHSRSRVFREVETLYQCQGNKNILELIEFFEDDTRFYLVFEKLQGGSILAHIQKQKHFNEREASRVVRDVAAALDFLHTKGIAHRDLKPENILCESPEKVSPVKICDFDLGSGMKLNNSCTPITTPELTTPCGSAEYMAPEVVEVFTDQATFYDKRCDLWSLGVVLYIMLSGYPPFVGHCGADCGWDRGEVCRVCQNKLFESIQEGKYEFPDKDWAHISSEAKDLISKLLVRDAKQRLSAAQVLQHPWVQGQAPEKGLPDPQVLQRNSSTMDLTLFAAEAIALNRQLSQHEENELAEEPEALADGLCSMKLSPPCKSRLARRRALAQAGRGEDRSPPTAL
T2 sequence (Q9BUB5 1-424 isoform Q9BUB5-2 T344D): as above

Row | SMILES | IC50 (human full-length MKNK1 [1]) [nM] | IC50 (human full-length MKNK1 [2]) [nM]
1 | COc1ccc2cc(-c3cnc4ccc(OCCCCN)nn34)oc2c1 [Example 8, 4-{[3-(6-methoxy-1-benzofuran-2-yl)imidazo[1,2-b]pyridazin-6-yl]oxy}butan-1-amine] | 217 | 798
2 | COc1ccc2cc(-c3cnc4ccc(O[C@H](C)CNC(C)=O)nn34)oc2c1 [Example 14, N-[(2R)-2-{[3-(6-methoxy-1-benzofuran-2-yl)imidazo[1,2-b]pyridazin-6-yl]oxy}-propyl]acetamide] | 997 | 3810
3 | CC(=O)NC[C@@H](C)Oc1ccc2ncc(-c3cc4ccc(O)cc4o3)n2n1 [Example 5, N-[(2R)-2-{[3-(6-hydroxy-1-benzofuran-2-yl)imidazo[1,2-b]pyridazin-6-yl]oxy}-propyl]acetamide] | 40.2 | 37.7
4 | C[C@H](CN)Oc1ccc2ncc(-c3cc4ccc(O)cc4o3)n2n1 [Example 4, 2-(6-{[(2R)-1-aminopropan-2-yl]oxy}imidazo[1,2-b]pyridazin-3-yl)-1-benzofuran-6-ol] | 49.1 | 42.1
5 | COc1ccc2cc(-c3cnc4ccc(OCC(C)(C)CN(C)C)nn34)oc2c1 [Example 7, 3-{[3-(6-methoxy-1-benzofuran-2-yl)imidazo[1,2-b]pyridazin-6-yl]oxy}-N,N,2,2-tetramethylpropan-1-amine] | 5440 | 14800
6 | COc1ccc2cc(-c3cnc4ccc(OCCCCN(C)C)nn34)oc2c1 [Example 9, 4-{[3-(6-methoxy-1-benzofuran-2-yl)imidazo[1,2-b]pyridazin-6-yl]oxy}-N,N-dimethylbutan-1-amine] | 434 | 1010
7 | COc1ccc2cc(-c3cnc4ccc(OCCCO)nn34)oc2c1 [Example 1, 3-{[3-(6-methoxy-1-benzofuran-2-yl)imidazo[1,2-b]pyridazin-6-yl]oxy}propan-1-ol] | 714 | 2570
8 | CCN(CC)CCCC(C)Oc1ccc2ncc(-c3cc4ccc(OC)cc4o3)n2n1 (stereo not drawn) [Example 10, N,N-diethyl-4-{[3-(6-methoxy-1-benzofuran-2-yl)imidazo[1,2-b]pyridazin-6-yl]-oxy}pentan-1-amine] | 127 | 352
9 | COc1ccc2cc(-c3cnc4ccc(OCCN)nn34)oc2c1 [Example 3, 2-{[3-(6-methoxy-1-benzofuran-2-yl)imidazo[1,2-b]pyridazin-6-yl]oxy}ethanamine] | 977 | 2550
10 | COCCCOc1ccc2ncc(-c3cc4ccc(OC)cc4o3)n2n1 [Example 2, 3-(6-methoxy-1-benzofuran-2-yl)-6-(3-methoxypropoxy)imidazo[1,2-b]-pyridazine] | 864 | 5520
11 | COc1ccc2cc(-c3cnc4ccc(OCCN5CCNC5=O)nn34)oc2c1 [Example 12, 1-(2-{[3-(6-methoxy-1-benzofuran-2-yl)imidazo[1,2-b]pyridazin-6-yl]oxy}ethyl)-imidazolidin-2-one] | 410 | 2390
12 | COc1ccc2cc(-c3cnc4ccc(OCCC5CCCN5C)nn34)oc2c1 (stereo not drawn) [Example 11, 3-(6-methoxy-1-benzofuran-2-yl)-6-[2-(1-methylpyrrolidin-2-yl)ethoxy]imidazo-[1,2-b]pyridazine] | 664 | 1150
13 | COc1ccc2cc(-c3cnc4ccc(OCCCN)nn34)oc2c1 [Example 6, 3-{[3-(6-methoxy-1-benzofuran-2-yl)imidazo[1,2-b]pyridazin-6-yl]oxy}propan-1-amine] | 343 | 913
14 | COc1ccc2cc(-c3cnc4ccc(O[C@H](C)CN)nn34)oc2c1 [Example 15, (2R)-2-{[3-(6-methoxy-1-benzofuran-2-yl)imidazo[1,2-b]pyridazin-6-yl]oxy}-propan-1-amine] | 1320 | 2820
15 | COc1ccc2cc(-c3cnc4ccc(OCCCN5CCOCC5)nn34)oc2c1 [Example 13, 3-(6-methoxy-1-benzofuran-2-yl)-6-[3-(morpholin-4-yl)propoxy]imidazo[1,2-b]-pyridazine] | 567 | 2130
